Experimental data reported in patent publication US20250144101A1, “LYSOSOMAL DYSFUNCTION IN NEUROLOGICAL AND PSYCHIATRIC DISORDERS” (The Johns Hopkins University, priority 2022, published 2025).

Key:
[1] = tested on: α-galactosidase A; conditions: cells from patients with Fabry disease; cited from earlier work
[2] = tested on: PLA2G4A; assay: RNA-sequencing in iPS cell-derived neurons: PLA2G4A expression; type: cell-based; conditions: WT and CLN3 KO human iPS cell-derived neurons, treated 2 weeks vs mock, FIG. 5A
From the text: (§1) RNA-sequencing in iPS cell-derived neurons: Cells were differentiated from iPS cells and treated either with 0.1% DMSO or Compound A for 2 weeks. RNAs were extracted using RNeasy Mini Kit (QIAGEN). The libraries for RNA-sequencing were constructed by SMART-Seq v4 Ultra Low Input RNA Kit (Takara bio).

[3] = tested on: lymphoblasts from BD patients with a Cln3 mutation; assay: LAMP1 staining of BD/JNCL patient lymphoblasts; type: cell-based, human
Description: (§2) LAMP1 staining: Lymphoblasts were fixed with methanol and incubated overnight at 4° C. with anti-human LAMP1 antibody (1:400, Cell Signaling Technology) followed by secondary antibody (Alexa Fluor 488 donkey anti-rabbit IgG, 1:1000, Thermo Fisher Scientific). Neuronal cells differentiated from iPS cells were fixed with 4% paraformaldehyde (PFA) and incubated overnight at 4° C. with anti-human LAMP1 antibody (1:400, Cell Signaling Technology) followed by a secondary antibody (Alexa Fluor 488 donkey anti-rabbit IgG, 1:1000, Thermo Fisher Scientific). White blood cells from mice were fixed with methanol and incubated overnight at 4° C. with LAMP1 antibody (1:1000, Abcam) followed by a secondary antibody (Alexa Fluor 488 donkey anti-rabbit IgG, 1:1000, Thermo Fisher Scientific). KEYENCE BZ-X710 and BX-Z analyzer software were used for imaging quantification.

[4] = tested on: Cln3−/− mice; assay: Novel object recognition test, BD animal model; type: in vivo; conditions: CLN3 knockout (KO) mice, FIG. 4D
Description: Novel Object Recognition Test (NORT): The test was carried out according to the previously validated method (Hatayama et al., Neuroscience 265 (2014) 217-25). All mice were habituated for 1 hour to the NORT arena one day before the test day. On the day of testing, the mice were given two 5-min trials (T1 with two identical objects and T2 with a familiar object from T1 and a novel object), separated by 1-hour interval. The discrimination index (DI) ((time spent exploring the novel object−time spent exploring the familiar object)/total exploration time) was calculated for T2 trials.

[5] = tested on: PLA2G7; assay: RNA-sequencing in iPS cell-derived neurons: PLA2G7 expression; type: cell-based; conditions: WT and CLN3 KO human iPS cell-derived neurons, treated 2 weeks vs mock, FIG. 5B
From the text: as §1

[6] = tested on: Cln3−/− mice; assay: LAMP1 staining of peripheral white blood cells, BD animal model; type: in vivo; conditions: CLN3 knockout (KO) mice, FIG. 4C
Description: as §2
Isolation of white blood cells from peripheral blood of mice: 20 μL of blood of mice was lysed with ACK lysing buffer (Lonza) for 1 min. After washing, cells were resuspended with RPMI.

[7] = tested on: lymphoblasts from BD patients with a Cln3 mutation; assay: Cellular autofluorescence (AF) in BD/JNCL patient lymphoblasts by flow cytometry; type: cell-based, human
Description: Autofluorescence (AF): AF levels in human blood cells were measured in 30,000 cells using flow cytometry at FL-1 with the BD FACSCalibur™ (BD Biosciences) (Excitation; 488 nm, Emission; 530±15 nm) (for FIGS. 1A-1C). AF levels in lymphoblasts were measured in 20,000 cells using flow cytometry with Attune Flow Cytometer (Thermo Fisher Scientific) (Excitation; 488 nm, Emission; 530 nm) (for FIGS. 2A and 2B).

[8] = tested on: animal model of GM1 gangliosidosis; conditions: cited from earlier work
[9] = tested on: Neuronal cells differentiated from Cln3 mutant iPSCs; assay: LAMP1 staining of neuronal cells differentiated from Cln3 mutant iPSCs; type: cell-based, human; conditions: 0.4-10 μM, n=2-3, FIG. 2D
Description: as §2

Compound: OC[C@H]1NC[C@H](O)[C@@H](O)[C@H]1O [1-deoxygalactonojirimycin (DGJ), 1-deoxygalactonojirimycin]
- residual α-galactosidase A activity [1]: enhance residual α-galactosidase A activity

Compound: CC(C)CN1CCCn2c1nc1ccc(NCCN(C)C)cc1c2=O [Compound A, 8-{[2-(dimethylamino)ethyl]amino}-1-(2-methylpropyl)-1,2,3,4-tetrahydro-6H-pyrimido[2,1-b]quinazolin-6-one]
- expression of PLA2G4A [2]: significantly influenced the expression of PLA2 genes
- elevated LAMP1 signal in Batten disease (BD) lymphoblasts ([3]; FIG. 4B): amelioration of elevated LAMP1 signal
- cognitive deficits (novel object recognition test) of BD mice [4]: Amelioration of cognitive deficits
- expression of PLA2G7 [5]: significantly influenced the expression of PLA2 genes
- elevated LAMP1 signal in peripheral white blood cells of BD mice [6]: amelioration of elevated LAMP1 signal
- elevated autofluorescence (AF) in Batten disease (BD) lymphoblasts ([7]; FIG. 4A): amelioration of elevated autofluorescence (AF)

Compound: CCCCCCCCNC1C=C(CO)C(O)C(O)C1O (stereo not drawn) [N-octyl 4-epi-β-valienamine (NOEV), N-octyl 4-epi-β-valienamine]
- residual activity in the brain [8]: increased residual activity in the brain

Compound: CC(C)c1nc(N(C)S(C)(=O)=O)nc(-c2ccc(F)cc2)c1/C=C/[C@@H](O)C[C@@H](O)CC(=O)O [rosuvastatin]
- anti-LAMP1 staining of JNCL patient lymphoblasts ([3]; 10 μM, n=3, FIG. 2C): decreased it
- lysosomal deficits found in BD lymphoblasts (LAMP1 expression and AF levels) ([3]; cites FIGS. 2C, 2D): ameliorate the lysosomal deficits
- elevated autofluorescence (AF) of JNCL patient lymphoblasts ([7]; 10 μM, FIG. 2B): decreased it
- anti-LAMP1 staining of neuronal cells differentiated from Cln3 mutant iPSCs [9]: dose-dependently decreased it
